Laboratory results as given in the supplement of paper PMC10307832.

Experiments:
Experiment in all cases: relative viability (nuclei count vs DMSO), 5 days (fraction); higher = more cells survive
Imatinib + Olaparib = compound: Cc1ccc(NC(=O)c2ccc(CN3CCN(C)CC3)cc2)cc1Nc1nccc(-c2cccnc2)n1 [Imatinib] + O=C(c1cc(Cc2n[nH]c(=O)c3ccccc23)ccc1F)N1CCN(C(=O)C2CC2)CC1 [Olaparib] (partner 8 µM)
In short: (§1)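 The day after seeding in 1536-well plates, lung cancer cell lines were treated by pin tool with a single drug, or with a fixed anchor-drug dose together with five library-drug doses (not always all listed) in √10 steps. After 5 days, a combined fix-and-stain solution (final 0.05% Triton X-100, 1% formaldehyde, 1 ug/ml Hoechst) was added. Nuclei counted on 4× images gave relative viability as treated counts over vehicle counts, reported as the median of duplicate plates.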

Imatinib + Pemetrexed = compound: Cc1ccc(NC(=O)c2ccc(CN3CCN(C)CC3)cc2)cc1Nc1nccc(-c2cccnc2)n1 [Imatinib] + Nc1nc2[nH]cc(CCc3ccc(C(=O)N[C@@H](CCC(=O)O)C(=O)O)cc3)c2c(=O)[nH]1 [Pemetrexed] (partner 0.2 µM)
In short: as §1

Imatinib + Foretinib = compound: Cc1ccc(NC(=O)c2ccc(CN3CCN(C)CC3)cc2)cc1Nc1nccc(-c2cccnc2)n1 [Imatinib] + COc1cc2c(Oc3ccc(NC(=O)C4(C(=O)Nc5ccc(F)cc5)CC4)cc3F)ccnc2cc1OCCCN1CCOCC1 [Foretinib] (partner 0.25 µM)
In short: as §1

Imatinib = compound: Cc1ccc(NC(=O)c2ccc(CN3CCN(C)CC3)cc2)cc1Nc1nccc(-c2cccnc2)n1 [Imatinib]
In short: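 Viability is treated-well nuclei as a fraction of vehicle-well nuclei, reported as the median across plates. Before counting, lung cancer cell lines were kept overnight at 37 °C in 1536-well plates, pinned with five √10-spaced library-drug doses on vehicle-anchored plates, and left 5 days without medium change, then fixed, permeabilised and Hoechst-stained in one step, imaged at 4× and counted by MetaXpress. A plate passed only if control CV was below 25% and at least one doubling occurred.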

Row | Cell Line | relative viability (Imatinib + Olaparib; first compound 0.02 µM) | relative viability (Imatinib + Olaparib; first compound 0.06325 µM) | relative viability (Imatinib + Olaparib; first compound 0.2 µM) | relative viability (Imatinib + Olaparib; first compound 0.6325 µM) | relative viability (Imatinib + Olaparib; first compound 2 µM) | relative viability (Imatinib + Pemetrexed; first compound 0.02 µM) | relative viability (Imatinib + Pemetrexed; first compound 0.06325 µM) | relative viability (Imatinib + Pemetrexed; first compound 0.2 µM) | relative viability (Imatinib + Pemetrexed; first compound 0.6325 µM) | relative viability (Imatinib + Pemetrexed; first compound 2 µM) | relative viability (Imatinib + Foretinib; first compound 0.02 µM) | relative viability (Imatinib + Foretinib; first compound 0.06325 µM) | relative viability (Imatinib + Foretinib; first compound 0.2 µM) | relative viability (Imatinib + Foretinib; first compound 0.6325 µM) | relative viability (Imatinib + Foretinib; first compound 2 µM) | relative viability (Imatinib; 0.02 µM) | relative viability (Imatinib; 0.06325 µM) | relative viability (Imatinib; 0.2 µM) | relative viability (Imatinib; 0.6325 µM) | relative viability (Imatinib; 2 µM)
1 | NCI-H460 | 0.515 | 0.431 | 0.402 | 0.462 | 0.396 | 0.0572 | 0.0576 | 0.0551 | 0.0623 | 0.0654 | 1.12 | 0.918 | 1.15 | 0.909 | 1.07 | 1.1 | 0.985 | 1.11 | 0.925 | 1
2 | 201T | 0.879 | 0.873 | 0.845 | 0.814 | 0.836 | 0.317 | 0.24 | 0.391 | 0.284 | 0.31 | 1.21 | – | 1.06 | 1.04 | 1.12 | 1.01 | – | 1.02 | 0.997 | 0.965
3 | NCI-H1755 | 0.946 | 0.848 | 0.968 | 0.881 | 0.85 | 0.568 | 0.44 | 0.416 | 0.386 | 0.625 | 0.917 | 1.02 | 0.98 | 0.948 | – | 1.08 | 0.988 | – | 0.958 | 1.01
4 | NCI-H1355 | 0.812 | – | 0.822 | 0.762 | 0.699 | 1.14 | – | 1.11 | 1.08 | 1.01 | 1.05 | – | 1.07 | 0.964 | 0.983 | 1.05 | – | 1.08 | 0.978 | 0.99
5 | HCC-78 | 0.564 | 0.688 | 1.09 | 0.885 | 0.999 | 0.865 | 0.955 | 0.949 | 0.916 | 0.882 | 0.654 | 0.577 | 0.534 | 0.44 | 0.56 | 0.901 | 0.797 | 1.06 | 0.89 | 0.904
6 | EKVX | 1.05 | – | 1.12 | 0.923 | – | 0.442 | – | 0.509 | 0.391 | – | – | 0.585 | 0.68 | 0.736 | 0.988 | 1.03 | 0.763 | 1 | 1.01 | –
7 | BEN | 1.2 | 1.14 | 1.01 | 1.08 | 1.06 | 0.832 | 0.835 | 0.691 | 0.89 | 0.879 | 0.774 | – | 0.564 | 0.701 | 0.602 | 1.09 | 0.82 | 0.897 | 0.871 | 0.912
8 | HARA | 0.408 | 0.568 | – | 0.896 | 0.68 | 0.256 | 0.235 | 0.23 | 0.286 | 0.227 | 0.836 | – | 0.976 | 0.886 | 0.971 | 1.06 | – | 1.07 | 0.993 | –
9 | HCC-15 | 0.773 | – | 0.719 | 0.791 | 0.742 | 0.225 | 0.234 | 0.236 | 0.218 | 0.211 | 1.14 | – | 1.05 | 0.987 | 1.09 | 1.03 | – | 1.1 | 1.1 | –
10 | SW 900 | 0.909 | 1.08 | 1.05 | 0.711 | 0.731 | 0.465 | 0.393 | 0.418 | 0.47 | 0.425 | 0.879 | 1.04 | 1.09 | 0.717 | 1.04 | 0.806 | 0.712 | 0.941 | 0.896 | 0.855
11 | NCI-H2009 | 0.692 | 0.882 | 0.796 | 0.671 | 0.661 | 1.11 | 1.17 | 1.05 | 0.984 | 0.993 | 1.29 | – | 1.27 | 1.25 | 1.23 | 1.08 | 0.728 | 1.09 | 1.05 | 0.977
12 | NCI-H23 | 0.384 | 0.287 | 0.32 | 0.376 | 0.32 | 0.692 | 0.69 | – | – | 0.571 | 1.13 | 1.15 | 1.2 | 1.07 | 1.13 | 1.06 | 0.994 | 1.07 | 0.967 | 0.926
13 | NCI-H838 | 0.88 | 0.988 | – | 0.883 | 0.852 | 0.249 | 0.26 | 0.251 | 0.253 | 0.247 | 1.15 | 1.17 | 1.07 | 1.02 | 1.02 | 1.03 | 1.09 | – | 1 | 1.01
14 | NCI-H1395 | 0.455 | – | 0.405 | 0.428 | 0.409 | 0.807 | – | 0.955 | 1.04 | 0.784 | 0.952 | 1.15 | 1 | – | 1.02 | 1.13 | – | 0.897 | 0.976 | 0.938
15 | NCI-H358 | 0.733 | 0.699 | 0.613 | 0.549 | 0.556 | 0.167 | 0.169 | 0.189 | 0.171 | 0.178 | 0.685 | 0.519 | 0.726 | 0.619 | 0.648 | – | 0.865 | 1.02 | 0.819 | 0.947
16 | NCI-H1666 | 0.734 | 0.763 | 0.769 | 0.833 | 0.74 | 0.902 | 0.906 | 0.897 | 0.842 | 0.842 | 0.926 | 0.911 | 0.943 | 1.15 | 0.966 | – | 0.958 | 0.98 | 1.15 | 1.01
17 | NCI-H2023 | 0.552 | 0.472 | 0.45 | 0.62 | 0.408 | 0.224 | 0.318 | 0.304 | – | 0.27 | 0.87 | – | 0.873 | – | 0.776 | 1.06 | 0.78 | 1.14 | – | 0.985
18 | NCI-H2087 | 0.63 | – | 0.619 | 0.595 | – | 0.692 | – | 0.749 | 0.58 | – | 1.2 | – | – | 1.05 | 0.976 | 1.11 | – | 1.13 | 1.16 | –
